# Test results from US20240131044A1, “METHOD FOR TREATING CANCER” (M.T.3, Inc., priority 2022, published 2024).
# Tests used:
# [1] = tested on: V79 cells; experiment: Colony formation, survival fraction of V79 cells; assay type: cell-based, Chinese hamsters; settings: SQAP not administered
# Protocol: (§1) An anti-cancer agent and a pharmaceutical composition were administered to test cells and then the cells were cultured. Then, after colonies were formed, the number of colonies was counted. Here, samples in which the concentration of the anti-cancer agent to be administered was varied were prepared, and in each sample, the survival fraction of the cells compared with the case where cells were cultured without administration of the pharmaceutical composition was measured. Regarding the type of anti-cancer agent to be administered, a predetermined anti-cancer agent was selected depending on the type of administration target cells. Note that cells that were cultured without administration of the pharmaceutical composition and the anti-cancer agent were used as a control. Hereinafter, these steps will be described.
# (§2) Here, CHO cells, V79 cells, and canine-derived cancer cells were prepared as the test cells. The CHO cells are ovarian cells derived from Chinese hamsters, and the V79 cells are fibroblasts derived from the lungs of Chinese hamsters. Melanoma developing cells (CML6M) and soft tissue sarcoma developing cells (STSA-1) were used as the cancer cells.
# (§3) The cancer cells were prepared by being cultured using an αMEM culture medium supplemented with 10% serum and an antibiotic. The cancer cells were prepared such that, when the concentration of the cells in a cell suspension obtained by subjecting the cultured cells to PBS washing and trypsin treatment, the concentration was within a predetermined concentration range. Here, the predetermined concentration ranges were 300 cells/well, 100 to 150 cells/well, and 500 to 1000 cells/well for the CHO/V79 cells, the melanoma cells, and the soft tissue sarcoma cells, respectively.
# (§4) Next, the cancer cells were cultured in culture environments to which the anti-cancer agent was added at various concentrations, and were then allowed to form colonies. The culture periods for colony formation were a week, 10 days, and 14 days for CHO and V79, melanoma, and soft tissue sarcoma, respectively. After colonies were formed, washing using a physiological saline solution, fixation using 100% ethanol, and staining using 0.1% crystal violet were performed, and then the number of colonies per well was counted under a microscope. Note that, here, the colony was defined as containing 50 or more cells. […]
# A graph with the horizontal axis representing the concentration of the anti-cancer agent and the vertical axis representing the survival fraction was created by plotting the survival fraction measurement results relative to the SQAP administration amounts, and the effect of the addition of SQAP on the survival fraction was examined. Hereinafter, the results from each anti-cancer agent will be shown in a table and described. […]
# V79 cells were used as the cells, and cisplatin was used as the anti-cancer agent. The cisplatin was administered at concentrations of 0 μg/mL, 0.1 μg/mL, 0.2 μg/mL, 0.3 μg/mL, 0.4 μg/mL, and 0.5 μg/mL.
# V79 cells were used as the cells, and camptothecin was used as the anti-cancer agent. The amount of the camptothecin was set to 0 nM, 5 nM, 10 nM, 15 nM, and 20 nM.
# V79 cells were used as the cells, and mitomycin C was used as the anti-cancer agent. The amount of MMC was set to 0 nM, 100 nM, 200 nM, 300 nM, 400 nM, and 500 nM. […]
# V79 cells were used as the cells, and taxol was used as the anti-cancer agent. The amount of the taxol was set to 0 nM, 10 nM, 20 nM, and 30 nM.
# V79 cells were used as the cells, and MMS was used as the anti-cancer agent. The amount of the MMS was set to 0 μM, 10 μM, 20 μM, 30 μM, and 40 μM.
# (§5) In the above examples, the anti-cancer agent and the pharmaceutical composition were administered to the test cells and then the cells were cultured. […]
# [2] = tested on: Melanoma developing cells (CML6M); experiment: Colony formation, survival fraction of canine melanoma cells; assay type: cell-based; settings: melanoma cells; doxorubicin 15 nM, SQAP not administered
# Protocol: as §1, §2, §3
# (§6) Next, the cancer cells were cultured in culture environments to which the anti-cancer agent was added at various concentrations, and were then allowed to form colonies. The culture periods for colony formation were a week, 10 days, and 14 days for CHO and V79, melanoma, and soft tissue sarcoma, respectively. After colonies were formed, washing using a physiological saline solution, fixation using 100% ethanol, and staining using 0.1% crystal violet were performed, and then the number of colonies per well was counted under a microscope. Note that, here, the colony was defined as containing 50 or more cells. Moreover, mitomycin C, doxorubicin, bleomycin, camptothecin, etoposide, taxol, methyl methanesulfonate, and cisplatin were used as the anti-cancer agent.
# (§7) A graph with the horizontal axis representing the concentration of the anti-cancer agent and the vertical axis representing the survival fraction was created by plotting the survival fraction measurement results relative to the SQAP administration amounts, and the effect of the addition of SQAP on the survival fraction was examined. Hereinafter, the results from each anti-cancer agent will be shown in a table and described.
# Canine-derived melanoma cells and soft tissue sarcoma cells were used as the cells, and doxorubicin was used as the anti-cancer agent. […] Also, the concentration of the doxorubicin administered to the soft tissue sarcoma cells was set to 0 nM, 5 nM, 10 nM, and 15 nM. […] In Table 2, survival fractions in the case where SQAP was not administered are shown with a solid line, survival fractions in the case where SQAP was administered at a concentration of 10 μM are shown with a broken line, survival fractions in the case where SQAP was administered at a concentration of 20 μM are shown with a 1-dot chain line, and survival fractions in the case where SQAP was administered at a concentration of 30 μM are shown with a 2-dot chain line.
# as §5
# [3] = tested on: soft tissue sarcoma developing cells (STSA-1); experiment: Colony formation, survival fraction of canine soft tissue sarcoma cells; assay type: cell-based; settings: soft tissue sarcoma cells; doxorubicin 10 nM, SQAP not administered
# Protocol: as §1, §2, §3, §6, §7
# Canine-derived melanoma cells and soft tissue sarcoma cells were used as the cells, and doxorubicin was used as the anti-cancer agent. The amount of the doxorubicin administered to the melanoma cell was set to 0 nM, 5 nM, 10 nM, 15 nM, 20 nM, and 25 nM. […] In Table 2, survival fractions in the case where SQAP was not administered are shown with a solid line, survival fractions in the case where SQAP was administered at a concentration of 10 μM are shown with a broken line, survival fractions in the case where SQAP was administered at a concentration of 20 μM are shown with a 1-dot chain line, and survival fractions in the case where SQAP was administered at a concentration of 30 μM are shown with a 2-dot chain line.
# as §5
# [4] = tested on: CHO cells; experiment: Colony formation, survival fraction of CHO cells; assay type: cell-based, Chinese hamsters; settings: mitomycin C 500 nM, SQAP not administered
# Protocol: as §1, §2, §3, §4
# In the above examples, the anti-cancer agent and the pharmaceutical composition were administered to the test cells and then the cells were cultured. In this example, test cells were cultured after administering pharmaceutical composition (SQAP) alone without administering the anti-cancer agent to the test cells, and then the number of colonies was counted after colonies were formed. […]
# [5] = tested on: angiogenesis; settings: in combination with radiation; cited from earlier work
# [6] = tested on: human esophageal squamous cell carcinoma; settings: in combination with radiation; mouse with transplanted human esophageal squamous cell carcinoma; cited from earlier work
# [7] = tested on: human colon adenocarcinoma; settings: in combination with radiation; mouse with transplanted human colon adenocarcinoma; cited from earlier work
compound,measurement,setting,value
"COS(C)(=O)=O [MMS, methyl methanesulfonate, reference compound]",survival fraction,[1]; MMS 40 μM,about 40%
"CC[C@@]1(O)C(=O)OCc2c1cc1n(c2=O)Cc2cc3ccccc3nc2-1 [camptothecin, reference compound]",survival fraction,[1]; camptothecin 20 nM,about 15%
"N.N.[Cl][Pt][Cl] [cisplatin, reference compound]",survival fraction,[1]; cisplatin 0.3 μg/mL,about 40%
"COc1cccc2c1C(=O)c1c(O)c3c(c(O)c1C2=O)C[C@@](O)(C(=O)CO)C[C@@H]3O[C@H]1C[C@H](N)[C@H](O)[C@H](C)O1 [doxorubicin, reference compound]",survival fraction,[2],about 20%
same,survival fraction,[3],about 6%
"COc1cc([C@@H]2c3cc4c(cc3[C@@H](O[C@@H]3O[C@@H]5CO[C@@H](C)O[C@H]5[C@H](O)[C@H]3O)[C@H]3COC(=O)[C@H]23)OCO4)cc(OC)c1O [etoposide, reference compound]",survival fraction,[1]; etoposide 30 nM,about 30%
"CO[C@@]12[C@H](COC(N)=O)C3=C(C(=O)C(C)=C(N)C3=O)N1C[C@@H]1N[C@@H]12 [mitomycin C, reference compound]",survival fraction,[4],about 40%
same,survival fraction,[1]; mitomycin C 500 nM,about 50%
"CC(=O)O[C@H]1C(=O)[C@@]2(C)[C@H]([C@H](OC(=O)c3ccccc3)[C@]3(O)C[C@H](OC(=O)[C@H](O)[C@@H](NC(=O)c4ccccc4)c4ccccc4)C(C)=C1C3(C)C)[C@]1(OC(C)=O)CO[C@@H]1C[C@@H]2O [taxol, reference compound]",survival fraction,[1]; taxol 30 nM,about 5%
CCCCCCCCCC(=O)OCCCO[C@H]1O[C@H](CS(=O)(=O)[O-])[C@@H](O)[C@H](O)[C@H]1O.[Na+] [αSQAP C10:0],angiogenesis in an in-vitro test,[5],inhibited
CCCCCCCCCCCCCC(=O)OCCCO[C@H]1O[C@H](CS(=O)(=O)[O-])[C@@H](O)[C@H](O)[C@H]1O.[Na+] [αSQAP C14:0],angiogenesis in an in-vitro test,[5],inhibited
CCCCCCCCCCCCCCCCCC(=O)OCCCO[C@H]1O[C@H](CS(=O)(=O)[O-])[C@@H](O)[C@H](O)[C@H]1O.[Na+] [αSQAP C18:0],angiogenesis in an in-vitro test,[5],inhibited
same,increase in a tumor volume,[6],suppressed
same,increase in a tumor volume,[7],suppressed
CCCCCCCCCCCCCCCCCCCCCC(=O)OCCCO[C@H]1O[C@H](CS(=O)(=O)[O-])[C@@H](O)[C@H](O)[C@H]1O.[Na+] [αSQAP C22:0],angiogenesis in an in-vitro test,[5],inhibited
CCCCCCCCCCCCCCCCCC(=O)OCCCO[C@@H]1O[C@H](CS(=O)(=O)[O-])[C@@H](O)[C@H](O)[C@H]1O.[Na+] [βSQAP C18:0],angiogenesis in an in-vitro test,[5],inhibited
bleomycin [reference compound],survival fraction,[1]; bleomycin 15 nM,about 40%
